# Reference: PMC9088311, “Cyclic Thiosulfonates for Thiol-Mediated Uptake: Cascade Exchangers, Transporters, Inhibitors” (JACS Au, 2022)
# Where “and” joins values, the source holds several entries; their conditions need not be identical. Identical values can stand only once.
# How the values were obtained:
# HK cells, transporter 31 = assay: HCHT imaging: inhibition of cytosolic delivery of ETP transporter 31; format: cell-based, Human; conditions: co-incubation (C), inhibitor 1 h; for IC50 / IC15: Homo sapiens, 1 h; for IC50: read-out: IC50 (concentration needed to reach 50% inhibition), transporter 31 10 μM; for IC15: read-out: MIC (concentration needed to reach 15% inhibition), transporter 31 10 μM; for MIC (concentration needed to reach 15% inhibition): transporter 31 10 μM
# Procedure: (§1) Uptake inhibition was measured by the automated HCHT imaging used already to elaborate on cytosolic delivery. For inhibitor screening, HK cells in multiwell plates were incubated with increasing concentrations of inhibitors, followed by fluorescent transporters 28, 31, and 32 at a constant concentration. […] If inhibitors are removed before the addition of transporters 28, 31, and 32, the method is referred to as “pre-incubation”. This is of interest to minimize exchange between the transporter and the inhibitor but is often problematic because dynamic covalent exchange between the inhibitor and cellular target can also be reversed and thus lost. The complementary “co-incubation” operates without inhibitor removal before the addition of transporters 28, 31, and 32.
# (§2) 536/40 nm emission filter, and red with 531/40 nm excitation filter and 593/40 nm emission […]
# (§3) 4.3. HCHT Inhibitor Screening
# (§4) Pre-Incubation Method. As in ref. S1. HeLa Kyoto cells were seeded at 8 ×10^4 cells/mL in FluoroBrite DMEM + 10% FBS on μ-Plate 96-well Black ibiTreat sterile and incubated at 37 °C with 5% CO 2 for 24 h. Then, the medium was removed and cells were washed with PBS ([…]), fresh FluoroBrite DMEM medium (4 × 150 μL/well) was added into the cells using a plate washer (Biotek EL406®), keeping a final volume of 135 μL/well. Different concentrations of the inhibitors were prepared by serial dilution with 10% final concentration DMSO (10× in PBS). The solution of compounds 4 and 33 was prepared final DMSO concentration of 10% in each dilution (10× in PBS). These inhibitor solutions (10× final concentration), transporter 28 (10× in DMEM), transporters 31 and 32 (10× in PBS) a solution of HOE (100 μg/mL) and PI (10 μg/mL) in PBS were prepared freshly in a 96-well V-bottom plate before adding to the cells. The inhibitor solutions from the V-bottom plate were added to the cells (15 μL/well) in a final volume of 150 μL/well using an electronic multichannel pipette and cells were incubated for 1 h at 37 °C with 5% CO 2. After this incubation, cells were washed again with PBS and DMEM using the plate washer (in the way mentioned above), and transporter 28 , 31 or 32 from the V-bottom plate was added (15 μL/well) to the cells in a final volume of 150 μL/well. A final concentration of each transporter 28 , 31 and 32 was 5 μM, 10 μM and 0.5 μM, respectively, except for the control wells, where only PBS was added (15 μL/well). Cells treated with transporter 28 or 31 were incubated for 30 min, and cells treated with 32 were incubated for 2 h at 37 °C with 5% CO 2. After that, the cells were washed with PBS and DMEM using the plate washer, and the solution of Hoechst 33342 and PI from the V-bottom plate was added (15 μL/well) to the cells in a final volume of 150 μL/well. After 15 min of incubation at 37 °C with 5% CO 2, the cells were washed and kept in clean FluoroBrite
# (§5) DMEM. For live cell imaging, samples were kept at 37 °C with 5% CO 2 during the microscope imaging. The distribution of fluorescence stained cells was analyzed without fixing using an […]
# in vitro = conditions: human
# [1] = Dynamic covalent ring opening with thiol 10, 1H NMR kinetics; format: physicochemical
# Procedure: The dynamic covalent opening of CTO 3 with thiols yields product 9 with a disulfide and a sulfinate (Figure 3B). Consistent with short chalcogen bonds found in silico, the opening of CTO 3 was instantaneous on an NMR timescale with most thiols. To decelerate ring opening, bulky thiols were considered in combination with lowered pH to deactivate the nucleophile. With N-Ac-D-penicillamine 10, the opening of 5 mM CTO 3 in phosphate buffer/DMSO-d6 9:1 was still immediate at pD 6.7 but became detectable in ^1H NMR spectroscopy kinetics under more acidic conditions. The ring-opening rate constants k^O were estimated by fitting the initial velocities to second-order kinetics. Only lower bound rates were approximated from the earliest determined substrate conversions when reactions were still too fast despite the unfavorable conditions. At pD 5.4, dynamic covalent ring opening of CTO 3 with equimolar tertiary thiol 10 occurred with k^O > 0.49 M^–1 s^–1 and equilibrated at K = 6.0 × 10^3 M^–1 (Table 1, entry 1, Figures S4 and S5). At pD 2.7, further deceleration to k^O = 0.10 M^–1 s^–1 shifted the equilibrium to K = 500 M^–1 (Table 1, entry 2, Figures S6 and S7). […] At equilibrium, the concentration of thiol 10 further decreased slowly due to oxidation into the homodimer (Figure 3C, diamonds).
# Equilibrium constants for reactions with two reactants A and B and a product C are […]
# 3.1.1. Dynamic Covalent Ring Opening with Thiols
# General procedure A (at 5 mM): To a solution of deuterated sodium phosphate (200 mM in D 2O, pD 2.7 or 5.4, 180 mM final concentration), a stock solution of substrate (0.10 M in DMSO-d6, 5.0 mM final concentration) was added and stirred. Then a stock solution of 10 (0.10 M in DMSO- d6, 5.0 mM final concentration) was added and vigorously stirred at room temperature. The solution was transferred immediately to an NMR tube and NMR data were recorded repeatedly. The concentration of the substrate or thiol at each time plot was calculated by comparing the integrals of the peaks indicated with arrows in the figures, and plotted. The data points were fitted to obtain k1 with the Equation (S6) or (S7) using Graphpad Prism.
# General procedure B (at 2 mM): To a solution of deuterated sodium phosphate (200 mM in D 2O, pD 2.7 or 5.4, 180 mM final concentration), DMSO- d6 (10% DMSO- d6 in the reaction mixture) and a stock solution of substrate (0.10 M in DMSO- d6, 2.0 mM final concentration) were added and stirred. Then a stock solution of 10 (0.10 M in DMSO- d6, 2.0 mM final concentration) was added and vigorously stirred at room temperature. The solution was transferred immediately to an NMR tube and NMR data were recorded repeatedly. The concentration of the substrate or thiol at each time plot was calculated by comparing the integrals of the peaks indicated with arrows in the figures, and plotted. The data points were fitted to obtain k1 with the Equation (S6) or (S7) using Graphpad Prism.
# General procedure C (for thiosulfinates): To a solution of deuterated sodium phosphate (200 mM in D 2O, pD 5.4, 170 mM final concentration), a stock solution of substrate (0.10 M in DMSO- d6, 5.0 mM final concentration) was added and stirred. Then a stock solution of 10 (0.10 M in DMSO- d6, 10 mM final concentration) was added and vigorously stirred at room […]
# data points were fitted to obtain k1 with the Equation (S14) or (S16) using Graphpad Prism. […]
# 3.1.2. Dependence of Ring Opening on Proticity
# A mixture of deuterated phosphoric acid and NaOD (30% in D 2O), which gave pD 2.7 in D2O, was used as buffer in all solvent mixtures. To a solution of deuterated sodium phosphate (20 mM final concentration) in a mixture of D 2O and DMSO- d6 (540 μL, final D 2O content: […]
# concentration) was added and stirred. Then a stock solution of 10 (0.10 M in DMSO- d6, 5.0 mM final concentration) was added and vigorously stirred at room temperature. The solution was transferred immediately to an NMR tube and 1H NMR data were recorded repeatedly. […]
# HeLa Kyoto cells = assay: Relative viability (HOE/PI) in HCHT screening
# Procedure: One advantage of HCHT imaging of cellular uptake compared to flow cytometry[38],[42],[43] is that it simultaneously gives information on toxicity and intracellular localization. […] Information on the intracellular localization of reporters can be quantified through segmentation of cellular compartments stained with specific markers.[52]
# as §1
# Relative cell viability ( RV) for each condition in the presence of inhibitors was calculated […]
# of the relative cell viability ( RVrel) to the concentration of inhibitors ( cinhibitor ) was plotted and fitted with Equation (S19) to retrieve the concentration causing 50% cell growth inhibition (RV50) value and the Hill coefficient ( n).
# HK cells, transporter 28 = assay: HCHT imaging: inhibition of cytosolic delivery of CTO transporter 28; format: cell-based, Human; conditions: pre-incubation (P), inhibitor 1 h
# Procedure: as §1, §2, §3, §4, §5
# [2] = with transporter 31, co-incubation (C)
Compound,"IC50 (HK cells, transporter 31) [µM]","IC15 (HK cells, transporter 31) [µM]",RV50 (concentration needed to lower relative viability by 50%) (HeLa Kyoto cells; [2]) [µM],"viability at 7 h, 50 µM (in vitro) [%]",further results
CC(C)(C)[Si](C)(C)O[C@@H]1CS(=O)(=O)SC[C@@H]1O [Compound 6],5 ± 1,< 1,,,"viability at 7 h, 5 µM (in vitro): 105 ± 7%"
"CSS(C)(=O)=O [Compound 14, reference compound]",,,,,"k^O, rate constant of ring opening (or equivalent for acyclic controls) ([1]; equimolar 10, rt, pD 2.7, 90% D2O, Na+ phosphate 180 mM, substrate 2 mM): 0.52 M^–1 s^–1; krel^O, rate constant of ring opening relative to 3 ([1]; pD 2.7, 90% D2O, 2 mM): 5.2"
O=S1(=O)C[C@H](O)[C@@H](O)CS1 [Compound 15],22,1.5,>500,,"k^O, rate constant of ring opening ([1]; equimolar 10, rt, pD 2.7, 90% D2O/DMSO-d6, Na+ phosphate 180 mM, substrate 5 mM): >0.56 M^–1 s^–1; krel^O, rate constant of ring opening relative to 3 ([1]; pD 2.7, 90% D2O, 5 mM): >5.6; ring opening faster than 3 (fold) ([1]; with thiol 10, pD 2.7): 5 ×"
"O=C(O)c1cc(SSc2ccc([N+](=O)[O-])c(C(=O)O)c2)ccc1[N+](=O)[O-] [Compound 16, 5,5’-Dithiobis(2-nitrobenzoic acid), reference compound]",,,,,"k^O, rate constant of ring opening (or equivalent for acyclic controls) ([1]; equimolar 10, rt, pD 5.4, 90% D2O/DMSO-d6, Na+ phosphate 180 mM, substrate 5 mM): 0.11 M^–1 s^–1; krel^O, rate constant of ring opening relative to 3 ([1]; pD 5.4, 90% D2O, 5 mM): <0.22; ring opening/exchange slower than CTO 3 (fold) ([1]; with thiol 10, pD 5.4): > 5 ×; viability at 7 h, 5 µM (in vitro): 89%"
"CCN1C(=O)C2SSC1C(=O)N2CC(=O)NCCNC(=S)Nc1ccc(-c2c3ccc(=O)cc-3oc3cc(O)ccc23)c(C(=O)O)c1 (centres unmarked) [Compound 31, reference compound]",,,,,"toxicity of transporters (in words) (HeLa Kyoto cells; conditions of HCHT screening (28 5 μM, 31 10 μM, 32 0.5 μM)): not toxic"
CC(=O)O[C@H]1CSS(=O)(=O)C[C@H]1O [Compound 36],27,2.1,>50,97,"MIC (concentration needed to reach 15% inhibition) (HK cells, transporter 31): 2 µM"
O=S(O)CC(O)C(O)CSSCC(O)C(O)CS(=O)O (centres unmarked) [Compound 37],60 ± 20,6.8,>50,97,"MIC (concentration needed to reach 15% inhibition) (HK cells, transporter 31): 7 µM"
CC(C)(C)[Si](C)(C)O[C@@H]1CS(=O)(=O)SC[C@@H]1OC(=O)NCC[N+](C)(C)C [Compound 38],47,23,,37,
NCCNC(=O)O[C@H]1CSS(=O)(=O)C[C@H]1O [Compound 39],> 50,14,>50,86,
O=S(O)CC(O)C(O)CSSCCSSCC(O)C(O)CS(=O)O (centres unmarked) [Compound 40],50,7.8,>50,96,"MIC (concentration needed to reach 15% inhibition) (HK cells, transporter 31): 8 µM"
CCCNC(=O)O[C@H]1CSS(=O)(=O)C[C@H]1O[Si](C)(C)C(C)(C)C [Compound 43],,,,,"IC15 (HK cells, transporter 28; Homo sapiens, 1 h, read-out: MIC (concentration needed to reach 15% inhibition), transporter 28 5 μM): 4.1 µM; IC50 (HK cells, transporter 28; Homo sapiens, read-out: IC50 (concentration needed to reach 50% inhibition), transporter 28 5 μM): > 50 µM; MIC (concentration needed to reach 15% inhibition) (HK cells, transporter 28; transporter 28 5 μM): 4 µM; viability at 7 h, 10 µM (in vitro): 87%"
C#CCNC(=O)CC[C@H](NC(=O)COCCNC(=O)O[C@H]1CSS(=O)(=O)C[C@H]1O[Si](C)(C)C(C)(C)C)C(=O)NCCOCCNC(=O)O[C@H]1CSS(=O)(=O)C[C@H]1O[Si](C)(C)C(C)(C)C [Compound 44],,,,,"RV50 (concentration needed to lower relative viability by 50%) (HeLa Kyoto cells; with transporter 28, pre-incubation (P)): 4.1 ± 0.3 µM and 4 µM; viability at 7 h, 10 µM (in vitro): 98%"
